Results: patent US20260344621A1, “CHEMICAL DISBUDDING METHOD” (WELFARE CONCEPTS LIMITED, priority 2022, published 2026)
“Also recorded” adds a separate entry of the source. Where a name gives a salt, the structure may show the parent alone.

Assays:
[1] = Example 1: pain response and procedure time; type: in vivo, calves (bovine dairy calves, 7 days of age)
Method: (§1) A study was performed to test the disbudding efficacy from the administration to horn buds of mepacrine dihydrochloride, compared to a conventional hot iron disbudding method. The mepacrine dihydrochloride was administered as compositions comprising mepacrine dihydrochloride suspended in water. The compositions were prepared by dispersing mepacrine dihydrochloride powder into water for injection. Immediately before administration the compositions were shaken to re-suspend the mepacrine dihydrochloride.
(§2) The administration of the mepacrine dihydrochloride was performed by injecting the mepacrine dihydrochloride composition using a McLintock pre-set syringe configured to administer up to 0.5 mL. The single dose administration for groups 1 to 4 was performed by injecting the composition directly into the horn bud. The divided dose administration for groups 5 to 8 was performed by injecting the smaller doses to the area immediately around the horn bud. The animals in control group 9 were first treated with a 2% lignocaine injection as a cornual nerve block and then disbudded using a conventional hot-iron.
(§3) The animals in the study were bovine dairy calves, progressively enrolled in the study and treated at 7 days of age.
The administration procedure of disbudding by administering mepacrine was less than 1 minute for each animal, compared to 5-10 minutes for the animals disbudded with the hot-iron.

[2] = tested on: horn buds; test: Example 1: disbudding efficacy of mepacrine dihydrochloride suspended in water, 90 days observation; type: in vivo, calves (bovine dairy calves, 7 days of age); conditions: for Horn growth / Scurs / Success rate / No horn growth: 10 animals treated, 90 days
Method: as §1
The animals in the study (calves) were divided into multiple groups. Groups 1 to 4 were administered a single dose of 0.5 mL of mepacrine dihydrochloride composition, with each being administered a composition with a different concentration of mepacrine dihydrochloride, ranging from 50 mg/mL to 400 mg/mL.
Groups 5 to 8 were administered a divided dose of 0.5 mL of mepacrine dihydrochloride composition, with each being administered a composition with a different concentration of mepacrine dihydrochloride, ranging from 50 mg/mL to 400 mg/mL. Each divided dose comprised 5 doses of 0.1 mL administered around the horn bud.
as §2
The left horn bud on each animal was left untreated as a control.
as §3
The success rate is based on the proportion of treated horn buds that had no subsequent horn growth or presence of a scur. A horn scur is a distorted horn that is not attached to the skull. […] The untreated horn bud on every animal developed into a horn.

[3] = tested on: horn buds; test: General conclusion on chemical disbudding agents: efficacy; type: in vivo, calves
Method: as §1
(§4) A study on calves was performed to test the disbudding efficacy from the administration to horn buds of chloroquine diphosphate and polidocanol.
(§5) Sixteen calves (4 to 6 days old) obtained from commercial dairy farms were used in this study. The calves were randomly assigned to receive one of the four formulations (Table 3). Animals were gently restrained and the hair around the horn bud region was clipped. The formulations (0.3 to 0.5 mL) were then injected subcutaneously under the right horn bud or around the right horn bud using a McLintock syringe and needle (22G 11/64″, 0.71*4.3 mm) which delivered 0.1 mL on each injection. The left horn bud acted as control. The details of the treatment are given in the below Table 3. […] The differences in the growth rate of the right and left horn buds were determined by measuring the height of the horn buds at regular intervals. Photos of the horn buds were taken at the same time. Calves will be euthanized after 4 months by intravenous injection of pentobarbitone sodium (100 mg/kg bodyweight) for gross pathology and histopathology of horn buds.

[4] = tested on: horn bud; conditions: high concentrations injected into the horn bud; Koger 1976; cited from earlier work
[5] = Example 3: pain related behaviors and adverse effects following injection; type: in vivo, calves (4 to 6 days old)
Method: as §5

[6] = tested on: horn buds; test: Example 3: growth rate of horn buds / efficacy of mepacrine and eugenol formulations; type: in vivo, calves (4 to 6 days old); conditions: for Height of right horn bud on 40th day / Height of right horn bud on 80th day / Horn growth rate (height of horn buds on 80th day minus height on 40th day), right horn bud: individual calf
Method: as §5, with “The formulations (0.3 to 0.5 mL) were then injected subcutaneously under the right horn bud or around the right horn bud using a McLintock syringe and needle (22G 11/64″, 0.71*4.3 mm) which delivered 0.1 mL on each injection.” left out

[7] = tested on: horn-bud tissue; conditions: injected under the horn bud; Sutherland et al 2019; cited from earlier work
[8] = tested on: horn bud tissue; conditions: as a cryogenic fluid; cited from earlier work
[9] = tested on: horn buds; test: Example 2: disbudding efficacy of chloroquine diphosphate and polidocanol, 90 days observation; type: in vivo, calves; conditions: for Horn growth / Scurs / Success rate / No horn growth: 90 days
Method: as §4
The chloroquine diphosphate was administered as compositions comprising chloroquine diphosphate suspended in water. The compositions were prepared by dispersing chloroquine diphosphate powder into water for injection. Immediately before administration the compositions were shaken to re-suspend the chloroquine diphosphate.
(§6) The polidocanol was administered either as undiluted polidocanol when administered at 100% concentration, or as a diluted solution with water for the 90%, 50% and 10% concentration groups.
The animals in the study were divided into multiple groups. Groups 1 and 2 were administered saline solution (0.9% sodium chloride) administered as a single dose for group 1, and as divided doses for group 2. Each divided dose comprised 5 doses of 0.1 mL administered around the horn bud.
Groups 3 and 4 were administered chloroquine diphosphate at either 100 mg/ml or 300 mg/mL, and groups 5 to 8 were administered polidocanol are different concentrations ranging from 100% to 10% w/v.

[10] = prior trials; cited from earlier work
[11] = Example 2: viscosity of the polidocanol compositions (observation); type: physicochemical; conditions: eg. 90%
Method: as §6

[12] = 50 mg/mL, multiple injections (5 × 0.1 mL)
[13] = 50 mg/mL, single injection (0.5 mL)
[14] = 100 mg/mL, multiple injections (5 × 0.1 mL)
[15] = 100 mg/mL, single injection (0.5 mL)
[16] = 200 mg/mL, multiple injections (5 × 0.1 mL)
[17] = 200 mg/mL, single injection (0.5 mL)
[18] = 400 mg/mL, multiple injections (5 × 0.1 mL)
[19] = 400 mg/mL, single injection (0.5 mL)
[20] = 100 mg/mL, single injection (0.5 mL), 3 animals treated
[21] = 300 mg/ml, single injection (0.5 mL), 4 animals treated
[22] = 50% polidocanol (0.5 mL), 4 animals treated
[23] = 90% polidocanol (0.5 mL), 4 animals treated
[24] = 100% polidocanol (0.5 mL), 1 animal treated

CCN(CC)CCCC(C)Nc1c2ccc(Cl)cc2nc2ccc(OC)cc12 (stereo not drawn) [Mepacrine dihydrochloride]
Pain response ([1]; after mepacrine disbudding treatment): very little pain response
Discomfort and pain reactions/behaviour ([1]; during administration): very little discomfort during administration and showed no pain reactions/behaviour
Discomfort / pain activity during and after injections ([1]; during injections and after completion): discomfort during the injections and no subsequent pain activity after completion of the injections
Horn growth [2, 12]: 9
Scurs [2, 12]: 1
Success rate [2, 12]: 0%
Horn growth [2, 13]: 7
No horn growth [2, 13]: 3
Success rate [2, 13]: 30%
Horn growth [2, 14]: 2
No horn growth [2, 14]: 5
Scurs [2, 14]: 3
Success rate [2, 14]: 50%
Horn growth [2, 15]: 7
No horn growth [2, 15]: 3
Success rate [2, 15]: 30%
No horn growth [2, 16]: 9
Scurs [2, 16]: 1
Success rate [2, 16]: 90%
Horn growth [2, 17]: 1
No horn growth [2, 17]: 8
Scurs [2, 17]: 1
Success rate [2, 17]: 80%
Horn growth [2, 18]: 1
No horn growth [2, 18]: 7
Scurs [2, 18]: 2
Success rate [2, 18]: 70%
No horn growth [2, 19]: 8
Scurs [2, 19]: 2
Success rate [2, 19]: 80%
Success rate (in words) ([2]; 0.5 mL of 200 mg/mL and 400 mg/L (so in the source), single injection and divided dose): high success rates
Success rate by concentration (in words) ([2]; 200 and 400 mg/mL vs 50 and 100 mg/mL): higher success rate in the higher concentration groups of 200 and 400 mg/mL
Advantage of splitting the dose into multiple injections ([2]; single vs multiple injections): no noticeable advantage
Function as chemical disbudding agents [3]: effective chemical disbudding agents

[Ca+2].[Cl-].[Cl-] [calcium chloride]
Inflammation [4]: significant inflammation
Necrosis of the tissue [4]: causing necrosis of the tissue

C=CCc1ccc(O)c(OC)c1 [Eugenol]
Character and course of the swelling ([5]; following the injection): painless to touch and resolved after few days
Swelling around the horn buds ([5]; following the injection): Swelling around the horn buds was observed; also recorded: Painless swelling at site of injection
Swelling and scars at the site of injection ([5]; main finding 4): slight swelling and scars at the site of injection
Scars and depression at the site of injection ([5]; site of injection): scars and depression were seen at the site of injection
Height of right horn bud on 40th day ([6]; 0.2 mL under the horn bud): (5-5) mm
Height of right horn bud on 80th day ([6]; 0.2 mL under the horn bud): (5-5) mm
Horn growth rate (height of horn buds on 80th day minus height on 40th day), right horn bud ([6]; 0.2 mL under the horn bud): 0 mm
Height of right horn bud on 40th day ([6]; 0.3 mL under the horn bud): (8-8) mm
Height of right horn bud on 80th day ([6]; 0.3 mL under the horn bud): (8-8) mm
Horn growth rate (height of horn buds on 80th day minus height on 40th day), right horn bud ([6]; 0.3 mL under the horn bud): 0 mm
Height of right horn bud on 40th day ([6]; 0.4 mL around the horn bud): 17 mm
Height of right horn bud on 80th day ([6]; 0.4 mL around the horn bud): 19 mm
Horn growth rate (height of horn buds on 80th day minus height on 40th day), right horn bud ([6]; 0.4 mL around the horn bud): 2mm
Height of right horn bud on 40th day ([6]; 0.5 mL around the horn bud): 8 mm
Height of right horn bud on 80th day ([6]; 0.5 mL around the horn bud): 10 mm
Horn growth rate (height of horn buds on 80th day minus height on 40th day), right horn bud ([6]; 0.5 mL around the horn bud): 2 mm
Height of right horn bud on 40th day ([6]; 0.5 mL under the horn bud): 14 mm
Height of right horn bud on 80th day ([6]; 0.5 mL under the horn bud): 22 mm
Horn growth rate (height of horn buds on 80th day minus height on 40th day), right horn bud ([6]; 0.5 mL under the horn bud): 8 mm
Effective (number of animals), subjective assessment of efficacy ([6]; N = 5 (aqueous mepacrine), 5 (eugenol), 2 (20:80), 3 (80:20)): 3
Ineffective (number of animals), subjective assessment of efficacy ([6]; N = 5 (aqueous mepacrine; around the horn bud), 5 (eugenol), 3 (80:20; around the horn bud)): 2
Ineffective, of these around the horn bud (number of animals) ([6]; eugenol, N = 5, around the horn bud): 1
Disbudding efficacy [7]: relatively ineffective, delaying rather preventing horn growth in many cases

liquid nitrogen
Destruction of horn bud tissue [8]: almost entirely ineffective

CCN(CC)CCCC(C)Nc1ccnc2cc(Cl)ccc12 (stereo not drawn) [Chloroquine diphosphate]
Horn growth [9, 20]: 2
Scurs [9, 20]: 1
Success rate [9, 20]: 0%
Disbudding success (in words) ([9]; 300 mg/mL): some success
Horn growth outcome (in words) ([9]; 300 mg/mL): half the animals having no horn growth at all, and the other have having only scurs forming
No horn growth [9, 21]: 2
Scurs [9, 21]: 2
Success rate [9, 21]: 50%
Function as chemical disbudding agents [3]: effective chemical disbudding agents

[Na+].[OH-] [caustic soda]
Adverse effects [10]: can lead to blindness of the treated animals

Polidocanol
No horn growth ([9]; 10% polidocanol (0.5 mL), 1 animal treated): 1
Horn growth [9, 22]: 3
Scurs [9, 22]: 1
Success rate [9, 22]: 0%
Horn growth [9, 23]: 1
No horn growth [9, 23]: 1
Scurs [9, 23]: 2
Success rate [9, 23]: 25%
Disbudding success (in words) ([9]; 100% concentration and 10% concentration): successful
No horn growth [9, 24]: 1
Success rate [9, 24]: 100%
Disbudding success (in words) ([9]; other concentrations (90%, 50%)): less successful
Function as chemical disbudding agents [3]: effective chemical disbudding agents
Viscosity of the higher concentration compositions [11]: highly viscous
